Results published in patent publication US12590100B2, “Tetrahydro-spiroindoline-pyrrolopyrrole-triones inhibitors of the NRF2-β-TrCP interaction for use in the treatment of fatty liver disease” (Universidad Autonoma De Madrid, priority 2021, dated 2026).

Tests used:
[1] = system: NRF2; assay: NRF2 and HO-1 protein levels in MEFs (immunoblot); format: cell-based, mouse
Experimental: FIG. 4. […] MEFs in serum-depleted conditions were subjected to (A-C) 1 μM, 3 μM, or 10 μM of PHAR and 10 μM of SFN as a positive control for 16 h; or (D-F) 10 μM of PHAR for the indicated times. In both experiments, 0.1% DMSO was used as a vehicle. A), representative immunoblots of NRF2, HO1, KEAP1, LAMINB, and GAPDH as loading controls. B) and C), densitometric analysis of NRF2 and HO1 protein levels of the representative immunoblots depicted in (A), expressed as a ratio of NRF2/LAMINB or HO1/GAPDH. The data is depicted as means±SEM (n=3). Statistical analysis was performed with one-way ANOVA followed by the Bonferroni test to check inter-group differences. *p<0.05; ***p<0.001 vs. 0. D), representative immunoblots of NRF2, HO1, KEAP1, LAMINB, and GAPDH as loading controls. E) and F), Densitometric analysis of NRF2 and HO1 protein levels of the representative immunoblots of (D), expressed as a ratio of NRF2/LAMINB or HO1/GAPDH. The data is depicted as means±SEM (n=3). Statistical analysis was performed with one-way ANOVA followed by the Bonferroni test to check inter-group differences. *p<0.05; ***p<0.001 vs. 0. G), Reporter MCF-7 c32 ARE-luc cells were subjected to 1 μM, 3 μM, or 9 μM of PHAR and 10 μM of SFN as a positive control. 0.1% DMSO was used as a vehicle. Luciferase activity was measured after 16 h of treatment. The data is depicted as means±SEM (n=3). Statistical analysis was performed with one-way ANOVA followed by the Bonferroni test to check inter-group differences. **p<0.01; ***p<0.001 vs. 0. H), MTT assay to evaluate cell viability/toxicity after treatments. I), Serum-deprived MEFs were subjected to 10 μM of PHAR. The mRNA levels of Hmox1, Nqo1, Aox1, Glc, and Gclm after 8 h of treatment were determined by means of pRT-PCR and normalized by means of average LaminB, Gapdh, and β-actin. The data is depicted as means±SEM (n=3). Statistical analysis was performed with the Student's T test. *p<0.05; **p<0.01 ***p<0.001 vs. 0.
In order to empirically determine if PHAR activates NRF2, mouse embryo fibroblasts (MEFs) were treated with several doses of the compound (1 μM, 3 μM, and […]) for 16 h and with 10 μM of sulforaphane (SFN), one of main electrophilic activators of NRF2, used as a positive control.
Moreover, a time course of NRF2 activation with PHAR (10 μM for 2, 4, and 8 h) or with SFN (10 μM, 8 h) was done as a positive control.

[2] = system: NRF2-regulated genes; assay: mRNA of NRF2-regulated genes in MEFs (qRT-PCR); format: cell-based, mouse; conditions: PHAR 10 μM, 8 h
Experimental: FIG. 4. PHAR activates the NRF2 pathway. MEFs in serum-depleted conditions were subjected to (A-C) 1 μM, 3 μM, or 10 μM of PHAR and 10 μM of SFN as a positive control for 16 h; or (D-F) 10 μM of PHAR for the indicated times. In both experiments, 0.1% DMSO was used as a vehicle. A), representative immunoblots of NRF2, HO1, KEAP1, LAMINB, and GAPDH as loading controls. B) and C), densitometric analysis of NRF2 and HO1 protein levels of the representative immunoblots depicted in (A), expressed as a ratio of NRF2/LAMINB or HO1/GAPDH. The data is depicted as means±SEM (n=3). Statistical analysis was performed with one-way ANOVA followed by the Bonferroni test to check inter-group differences. *p<0.05; ***p<0.001 vs. 0. D), representative immunoblots of NRF2, HO1, KEAP1, LAMINB, and GAPDH as loading controls. E) and F), Densitometric analysis of NRF2 and HO1 protein levels of the representative immunoblots of (D), expressed as a ratio of NRF2/LAMINB or HO1/GAPDH. The data is depicted as means±SEM (n=3). Statistical analysis was performed with one-way ANOVA followed by the Bonferroni test to check inter-group differences. *p<0.05; ***p<0.001 vs. 0. […] Luciferase activity was measured after 16 h of treatment. […] The mRNA levels of Hmox1, Nqo1, Aox1, Glc, and Gclm after 8 h of treatment were determined by means of pRT-PCR and normalized by means of average LaminB, Gapdh, and β-actin. […]

SMILES: O=C1[C@@H]2[C@H](Cc3c[nH]c4ccccc34)N[C@]3(C(=O)Nc4ccc(Cl)cc43)[C@@H]2C(=O)N1c1ccc2c(c1)OCCO2 [PHAR]
- HO-1 levels ([1]; 16 h, PHAR 1, 3, 9 μM): increase, mainly with the dose of 9 μM
- NRF2 accumulation ([1]; 16 h, PHAR 1, 3, 9 μM, SFN 10 μM): induced NRF2 accumulation, although to a slightly lesser extent than the accumulation induced by SFN
- NRF2 accumulation, time course ([1]; PHAR 10 μM for 2, 4, 8 h, SFN 10 μM, 8 h): induced NRF2 accumulation 2 h after treatment
- HO-1 levels, time course ([1]; PHAR 10 μM, 8 h): increase in HO-1 levels after 8 h
- transcripts of Hmox1, Nqo1, Aox1, Gclc, Gclm [2]: increase in the corresponding transcripts was observed in all the cases
